Laboratory results taken from patent publication US9120787B2, “HIV replication inhibitors” (priority 2011, dated 2015).
“And” between values parts separate entries of the source, which are not always exact repeats. Equal values may be shown once. Read-outs that look alike come from different tables or passages of the source.

Legend:
[1] = Cytotoxicity by MTS staining in PBMCs; assay type: cell-based; details: human, peripheral blood mononuclear cells (PBMC), read-out: TC50
Procedure: (§1) Cytotoxicity was assessed by MTS staining. At assay end-point, PBMC were stained with the addition of […] of the soluble tetrazolium-based dye MTS to determine cell viability and quantify compound toxicity. The plates were incubated 4 to 6 hrs at 37° C. Following incubation, the activity was assessed by reading absorbance values at 490/650 nm.

HIV-1Ba-L [2] = experiment: HIV-1Ba-L replication in PBMCs (supernatant RT end-point)
How it was run: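 Pooled PHA-stimulated human PBMCs (5×10^4 cells/well) were infected with HIV-1Ba-L at MOI 0.1 with nine ½-log compound dilutions and cultured seven days at 37° C. Supernatant RT activity was measured by ^3H-TTP incorporation on poly rA:oligo dT (60 minutes, 37° C) and counted by scintillation.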

[3] = molecular target: T1, recombinant HIVNL4-3 heterodimeric (p66/p51) Reverse Transcriptase (Human immunodeficiency virus type 1 group M subtype B, UniProt P12497); experiment: Biochemical reverse transcriptase assay; design: species or system HIV-1; details: 5'LTR template/primer
T1 construct: Purified recombinant HIVNL4-3 heterodimeric (p66/p51) Reverse Transcriptase (RT)
Procedure: Enantiomers of Example 34 were created and utilized to assess the activity of the compounds in a biochemical reverse transcriptase assay. Purified recombinant HIVNL4-3 heterodimeric (p66/p51) Reverse Transcriptase (RT) was used in experiments. RT activity was determined by the incorporation of radiolabeled deoxyribonucleotides into the newly synthesized DNA strand. The standard RT reaction mixture contained a synthetic homopolymeric template/primer [poly(rA)/oligo(dT)] or in vitro transcribed viral RNA derived from the HIV-1NL4-3 5′-LTR region (nucleotide residues 454 to 652) and a primer complementary to the primer binding site (PBS, nucleotide residues 636 to 652), radiolabeled deoxyribonucleotide, dNTPs and RT. The reaction was carried out in a volume of 40 μl containing 50 mM Tris HCl, pH 7.8, 50 mM KCl, 5 mM MgCl2, 1 mM DTT, 50 μM each of dATP, dCTP, dGTP, 50 nM dTTP, 1 μCi of [^3H] dTTP (70-90 Ci/mM) and 5 nM template/primer. The reaction was initiated by the addition of 10 nM RT. For compound screening, serially diluted test articles were added to the reaction followed by the addition of RT. The reaction mixture was incubated at 37° C. for 1 h, then quenched by the addition of ice-cold trichloroacetic acid (TCA) to the final concentration of 10%. The plate was incubated at 4° C. for 1 h to precipitate the synthesized DNA, then rinsed 3-times with 10% TCA and 1 time with 70% ethanol. After addition of 25 μl scintillation fluid to completely dried wells, radioactivity is counted by MicroBeta scintillation counter. The reduction of radioactivity represents the potency of compound inhibition.

[4] = Cytotoxicity by MTS staining in uninfected MAGI-CCR5 cells; assay type: cell-based; details: human, read-out: TC50
How it was run: (§2)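 Uninfected MAGI-CCR5 cells (HeLa-CD4-LTR-β-gal derived, expressing CD4/CCR5) plated at 1.0×10^4 cells/well the day before, then exposed to compounds at six concentrations in triplicate alongside parallel infected assays. Viability read by MTS staining.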

HIV-1 K103N, Y181C (A17) = HIV-1 K103N, Y181C (A17) replication in PBMCs; assay type: cell-based; details: for IC50: Human immunodeficiency virus 1, PBMC; for TI (TC50/IC50): Virus A17 (K103N, Y181C) in PBMCs; for effect of RT changes K103N and Y181C on anti-viral activity: virus with K103 to Asparagine and Y181 to cysteine
Excerpt: In another embodiment of the present disclosure compounds are provided which inhibit the replication of HIV strains resistant to NNRTIs. Compounds in this disclosure inhibit, A17, an HIV-1 virus with mutations in the RT non-nucleoside binding pocket, K103N and Y181C, in a dose-dependent susceptibility testing manner.
The asparagine variation at residue 103 and the cysteine variation at residue 181 are known to inhibit the activity of the NNRTI's.
Evaluation Dihydropyrimidines vs. HIV-1Ba-L and HIV-1 K103N, Y181C in PBMCs

HIV-1Ba-L [5] = experiment: Inhibition of virus replication in MAGI-CCR5 cells (β-galactosidase reporter); assay type: cell-based; details: HIV-1Ba-L in MAGI-CCR5 cells; for IC50: 48 hours, β-galactosidase reporter expression, read-out: IC50
How it was run: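 HeLa-derived MAGI-CCR5 cells (high CD4/CCR5, HIV-1 LTR-driven β-galactosidase) plated at 1.0×10^4 cells/well the day before infection with HIV-1Ba-L. Compounds tested at six concentrations in triplicate, with parallel uninfected plates for cytotoxicity.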

MAGI-CCR5 cells = experiment: Cytotoxicity by MTS staining in uninfected MAGI-CCR5 cells; assay type: cell-based; details: 48 hours, read-out: TC50 (the source's name)
How it was run: as §2

[6] = system: peripheral blood mononuclear cells (PBMC); experiment: Cytotoxicity by MTS staining in PBMCs; assay type: cell-based; details: MTS staining, read-out: TC50 (the source's name)
Procedure: as §1

[7] = Human immunodeficiency virus 1, PBMC, 168 h
[8] = 5'LTR/dPR IC50, HIV RT biochemical assay
[9] = Human immunodeficiency virus 1, BAL, PBMC
[10] = Virus Ba-L in PBMCs (Ba-L vs A17 comparison)

Row | SMILES | CC50 at 7 days ([1]; MTS staining) [µM] | TI (TC50/IC50) (HIV-1Ba-L [2]; HIV-1Ba-L in PBMCs) | IC50 (HIV-1Ba-L [2]; [7]) [µM] | IC50 [3, 8] | IC50 ([3]; HIV RT biochemical assay, read-out: 5'LTR/dPR IC50) | CC50 at 7 days ([1]; A17 line of the table) [µM] | CC50 at 7 days ([1]; Ba-L line of the table) [µM] | CC50 at 48 h [4] [µM] | IC50 (HIV-1 K103N, Y181C (A17)) [µM] | TI (TC50/IC50) (HIV-1 K103N, Y181C (A17)) | effect of RT changes K103N and Y181C on anti-viral activity (HIV-1 K103N, Y181C (A17)) | TI (TC50/IC50) (HIV-1Ba-L [5]) | IC50 (HIV-1Ba-L [5]; Human immunodeficiency virus 1) [µM] | IC50 (HIV-1Ba-L [2]; [9]) [µM] | TI (TC50/IC50) (HIV-1Ba-L [2]; [10]) | CC50 (MAGI-CCR5 cells) [µM] | IC50 (HIV-1Ba-L [5]) [µM] | CC50 [6] [µM] | IC50 (HIV-1Ba-L [2]; HIV-1Ba-L in PBMCs, seven days, RT end-point) [µM]
1 | CC1=C(c2nc(-c3ccc(C#N)cc3)cs2)C(c2cccc(O)c2)NC(=O)N1 (single isomer, unassigned) [Example 34 (enantiomer)] | ≥ 100 | D (D < 10.0) | 5 to 100 | > 100 µM | – | – | – | – | – | – | – | – | – | – | – | – | – | – | –
2 | Cc1cn([C@H]2C[C@H](N=[N+]=[N-])[C@@H](COP(=O)(O)OP(=O)(O)OP(=O)(O)O)O2)c(=O)[nH]c1=O [AZT-TP] | – | – | – | – | 0.009 µM and 0.01 µM | – | – | – | – | – | – | – | – | – | – | – | – | – | –
3 | CC1=C(c2nc(-c3ccc(C#N)cc3)cs2)C(c2cc3ccccc3n2C)NC(=O)N1 (centres unmarked) [Example 11] | ≥ 100 | A (A = TI (TC50/IC50) ≧100.0) | < 1 | – | – | ≥ 100 | ≥ 100 | ≥ 100 | > 100 | D (D < 10.0) | inhibit the anti-viral activity | A (A = TI (TC50/IC50) ≧ 100.0) | < 1 | < 1 | A (A = TI (TC50/IC50) ≧ 100.0) | – | – | – | –
4 | CC1=C(c2nc(-c3ccc(C#N)cc3)cs2)C(c2ccc(F)nc2)NC(=O)N1 (centres unmarked) [Example 19] | ≥ 100 | A (A = TI (TC50/IC50) ≧100.0) | < 1 | – | – | ≥ 100 | ≥ 100 | ≥ 100 | > 100 | D (D < 10.0) | inhibit the anti-viral activity | B (B < 100.0-50.0) | 1 to 5 | < 1 | A (A = TI (TC50/IC50) ≧ 100.0) | – | – | – | –
5 | CC1=C(c2nc(-c3ccc(C#N)cc3)cs2)C(c2cnc3ccccc3n2)NC(=O)N1 (centres unmarked) [Example 21] | ≥ 100 | D (D < 10.0) | > 100 | – | – | ≥ 100 | ≥ 100 | ≥ 100 | > 100 | D (D < 10.0) | – | D (D < 10.0) | > 100 | > 100 | D (D < 10.0) | – | – | – | –
6 | CC1=C(c2nc(-c3ccc(C#N)cc3)cs2)C(c2cccc(O)c2)NC(=O)N1 (centres unmarked) [Example 34] | 50 to 100 | A (A = TI (TC50/IC50) ≧100.0) | < 1 | < 1 µM | – | – | – | ≥ 100 | – | – | – | A (A = TI (TC50/IC50) ≧ 100.0) | < 1 | – | – | – | – | – | –
7 | COc1ccc(-c2csc(C3=C(C)NC(=O)NC3c3ccc(F)c([N+](=O)[O-])c3)n2)cc1 (centres unmarked) [Example 42] | ≥ 100 | D (D < 10.0) | 5 to 100 | – | – | ≥ 100 | ≥ 100 | ≥ 100 | 5 to 100 | D (D < 10.0) | – | D (D < 10.0) | > 100 | 5 to 100 | D (D < 10.0) | – | – | – | –
8 | CC1=C(c2nc(-c3ccc(C#N)cc3C)cs2)C(c2cccnc2F)NC(=O)N1 (centres unmarked) [Example 83] | – | – | – | – | – | – | – | – | – | – | – | B (B < 100.0-50.0) | – | – | – | < 50 | < 1 | – | –
9 | CC1=C(c2nc(-c3ccc(C#N)cc3C)cs2)C(c2cccnc2F)NC(=O)N1 (centres unmarked) [Example 86] | ≥ 100 | A (A = TI (TC50/IC50) ≧100.0) | < 1 | – | – | ≥ 100 | ≥ 100 | – | 5 to 100 | D (D < 10.0) | – | A (A = TI (TC50/IC50) ≧ 100.0) | – | < 1 | A (A = TI (TC50/IC50) ≧ 100.0) | ≥ 100 | < 1 | – | –
10 | CC1=C(c2nc(-c3ccc(C#N)cc3C)cs2)C(c2cc3ccccc3n2C)NC(=O)N1 (centres unmarked) [Example 87] | ≥ 100 | A (A = TI (TC50/IC50) ≧100.0) | < 1 | – | – | ≥ 100 | ≥ 100 | ≥ 100 | 5 to 100 | C (C < 50.0-10.0) | – | A (A = TI (TC50/IC50) ≧ 100.0) | < 1 | < 1 | A (A = TI (TC50/IC50) ≧ 100.0) | – | – | – | –
11 | CC1=C(c2nc(-c3ccc(F)cc3)cs2)C(Cc2ccccc2)NC(=O)N1 (centres unmarked) [Example 89] | ≥ 100 | D (D < 10.0) | 5 to 100 | – | – | ≥ 100 | ≥ 100 | ≥ 100 | > 100 | D (D < 10.0) | – | D (D < 10.0) | > 100 | > 100 | D (D < 10.0) | – | – | – | –
12 | CC1=C(c2nc(-c3ccc(C#N)cc3)cs2)C(c2ccc(Br)nc2)NC(=O)N1 (centres unmarked) [Example 93] | ≥ 100 | A (A = TI (TC50/IC50) ≧100.0) | < 1 | – | – | ≥ 100 | ≥ 100 | ≥ 100 | > 100 | D (D < 10.0) | – | A (A = TI (TC50/IC50) ≧ 100.0) | < 1 | < 1 | A (A = TI (TC50/IC50) ≧ 100.0) | – | – | – | –
13 | CC1=C(c2nc(-c3ccc(C#N)cc3)cs2)C(c2ccc(C(F)(F)F)nc2)NC(=O)N1 (centres unmarked) [Example 96] | ≥ 100 | A (A = TI (TC50/IC50) ≧100.0) | < 1 | – | – | ≥ 100 | ≥ 100 | ≥ 100 | 5 to 100 | D (D < 10.0) | – | A (A = TI (TC50/IC50) ≧ 100.0) | < 1 | < 1 | A (A = TI (TC50/IC50) ≧ 100.0) | – | – | – | –
14 | Cc1ccnc2c1NC(=O)c1cccnc1N2C1CC1 [Nevirapine] | – | – | – | 0.29 µM and 0.19 µM | – | – | – | – | – | – | – | – | – | – | – | – | – | – | –
15 | Cc1ccc(-c2ccc3c(c2)C=C(C(=O)Nc2ccc(C[N+](C)(C)C4CCOCC4)cc2)CCC3)cc1.[Cl-] [TAK 779, reference compound] | – | >29.9 | – | – | – | – | – | – | – | – | – | 2902.7 | – | – | – | > 10 | 0.004 | > 10 | 0.35
16 | Cc1cc(C#N)cc(C)c1Oc1nc(Nc2ccc(C#N)cc2)nc(N)c1Br [TMC-125, Etravirine, reference compound] | > 1 | >325.0 | – | 0.19 µM | – | > 1 | > 1 | > 100 | 0.01 | >101.0 | – | >37,500.0 | 0.003 | – | >402.0 | – | – | – | –
